Experiment [1] in a line: AMD model reaction with S-palmitoyl MESNA (HPLC/ELSD/MS). The note with it: 5 mM each reactant, NaH2PO4 buffer 200 mM pH 7.1, 10 mM TCEP, 25° C. The protocol:
The reaction was stirred at 25° C. and aliquots taken at the specified time points and subjected to HPLC/ELSD/MS analysis (Eclipse Plus C8 analytical column, 50-95% MeOH in H2O with 0.1% TFA, 0-7 min; 95% MeOH in H2O with 0.1% TFA, 7 min-end).

The next experiment deals with T1, calnexin (Homo sapiens, UniProt P27824).
T1 construct: we detected the palmitoylation levels of eight known palmitoylated proteins after treatment with 1; endogenous in cells; host or cells: HeLa
T1 sequence (P27824 21-592): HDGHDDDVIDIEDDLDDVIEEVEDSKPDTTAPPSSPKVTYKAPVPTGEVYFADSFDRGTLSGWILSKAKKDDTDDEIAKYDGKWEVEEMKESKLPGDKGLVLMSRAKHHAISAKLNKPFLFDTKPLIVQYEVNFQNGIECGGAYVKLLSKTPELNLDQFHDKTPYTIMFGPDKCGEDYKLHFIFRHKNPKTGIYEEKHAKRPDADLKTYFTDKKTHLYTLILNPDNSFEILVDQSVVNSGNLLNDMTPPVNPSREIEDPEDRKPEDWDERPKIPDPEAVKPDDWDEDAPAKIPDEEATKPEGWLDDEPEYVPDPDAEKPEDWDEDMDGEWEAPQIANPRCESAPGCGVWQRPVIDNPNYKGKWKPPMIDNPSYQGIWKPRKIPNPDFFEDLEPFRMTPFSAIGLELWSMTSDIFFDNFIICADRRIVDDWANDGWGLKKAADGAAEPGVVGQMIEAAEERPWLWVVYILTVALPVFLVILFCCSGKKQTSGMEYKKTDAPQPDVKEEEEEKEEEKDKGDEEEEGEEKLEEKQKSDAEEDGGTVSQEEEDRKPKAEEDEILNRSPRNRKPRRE
As to the kind of experiment: Acyl resin-assisted capture detection of calnexin palmitoylation in HeLa cells. As to conditions: 1.25 μmol/10^7 cells, relative to vehicle. Format: cell-based. The protocol:
HeLa cells were grown to confluency in 10 cm plates. Stock solutions of compounds were prepared in DMSO as before and diluted to the final indicated concentration in 5.5 mL of OptiMEM media before adding to cells. Cells were incubated at 37° C. for 20 min and then media removed and 3 mL of HBSS added to each plate. Cells were detached using a cell scraper, pelleted by centrifugation at 1,000 rcf for 5 min and the pellet processed using a CAPTUREome S-Palmitoylated Protein Kit (Badrilla, UK) according to the manufacturer's protocol. Samples were resolved by electrophoresis using 4-20% SDS-polyacrylamide gels (Bio-Rad) under denaturing and reducing conditions. Proteins were then electrotransferred to a PVDF membrane (Bio-Rad). […]
Assays were performed in 3 biological replicates. […] Western blots were analyzed using ImageJ^1. […]

The test system of a further experiment is HeLa cells. As to the kind of experiment: MS detection of AMD product 4 in HeLa cell lipid extracts. It counts as cell-based. As to conditions: 200 μM 1 with 400 μM TCEP, 20 min. The protocol: HeLa cells were grown to confluency in two 6 cm plates. Once confluent, media was removed and cells washed 1× with HBSS. Stock solutions were prepared as before. From these stocks, solutions of 200 μM 1 (with 400 μM TCEP) or 400 μM TCEP were prepared in OptiMEM media. To each plate was added 3 mL OptiMEM+400 μM TCEP or OptiMEM+200 μM 1 (with 400 μM TCEP). Cells were incubated at 37° C. for 20 min and then media removed and 3 mL of HBSS added to each plate. Cells were detached using a cell scraper, pelleted by centrifugation at 1,000 rcf for 5 min and the pellet subjected to a lipid extraction using the Bligh and Dyer method.^3 Lipid extracts were analyzed for the presence of the AMD product palmityl-N-L-Cys-Oct (4) using reverse phase chromatography on an HP 1100 LC station to a Thermo LCQdeca-MS running in ESI Positive Ion Mode. MS/MS analysis was performed on the [M+H]^+ peak of 4 (m/z 471) then selected reaction monitoring on the fragmentation peak (m/z 130) (FIG. 9).

A further experiment relates to AKT1 (pS473). As to the kind of experiment: Detection of AKT1 phosphorylation in HeLa cells (western blot). The note with it: 1.25 μmol/10^7 cells, 20 min, then EGF 5 min. It counts as cell-based. As to the method: HeLa cells were grown to confluency in 6 cm plates and then serum starved overnight in OptiMEM. Stock solutions of compounds were prepared in DMSO as before and diluted to the final indicated concentration in 2 mL of OptiMEM media before adding to cells. Cells were incubated at 37° C. for 20 min and then stimulated with […] EGF (ThermoFisher) for 5 min. Media was then removed and cells washed once with HBSS. 1.5 mL of HBSS was then added to each plate. Cells were detached using a cell scraper, pelleted by centrifugation at 1,000 rcf for 5 min and the pellet processed using MPER™ Mammalian Protein Extraction Reagent (ThermoFisher) with the addition of Halt Protease Inhibitor Cocktail (ThermoFisher) and 1 mM sodium orthovanadate. Samples were resolved by electrophoresis using 4-20% SDS-polyacrylamide gels (Bio-Rad) under denaturing and reducing conditions. Proteins were then electrotransferred to a PVDF membrane (Bio-Rad). The membrane was blocked with 3% BSA and then subjected to immunoblot analysis using AKT/MAPK Signaling Pathway Antibody Cocktail (ab151279) (Abcam) and secondary goat anti-rabbit IgG-HRP (sc-2030) (Santa Cruz Biotechnology). […]
Assays were performed in 3 biological replicates. Western blots were analyzed using ImageJl. […]
(In general: A western blot detects proteins with antibodies after separation by electrophoresis.)

Each structure is given as a SMILES string.

For `CCCCCCCCNC(=O)[C@@H](N)CS` [compound 1, H2N-L-Cys-Oct], in experiment [1], the “reaction with MESNA thiopalmitate 3 (cleavage of model S-palmitoyl group, ligation product 4)” value was “proceeded rapidly and irreversibly”. Further, the “reduction of palmitoylation level of calnexin” value on calnexin is reported as 19-40%. Moreover, in the experiment with HeLa cells, the “detection of N-acylated AMD product 4 in lipid extract (LC MS/MS)” value is “detected the expected AMD product, 4”. Also, in the experiment on AKT1 (pS473), the “AKT1 phosphorylation after EGF stimulation” value is “significant decrease”.

The values are drawn from patent publication US20210023065A1, “AMPHIPHILIC THIOL COMPOUNDS AND USES THEREOF” (THE REGENTS OF THE UNIVERSITY OF CALIFORNIA, priority 2018, published 2021).
